Like-named read-outs stand apart in the source and are kept apart here. Residues, ends and D or L forms follow the SMILES beside them.
Experiments:
[1] = molecular target: T1, binding between IKKβ and full-length Regnase-1 (FL_Reg1) (Homo sapiens, UniProt Q5D1E8); assay: Inhibition of kinase-Regnase-1 binding by the compounds (AlphaScreen), IKKβ
T1 construct: made in house; host or cells: Expi293 cells
T1 sequence (Q5D1E8 1-599): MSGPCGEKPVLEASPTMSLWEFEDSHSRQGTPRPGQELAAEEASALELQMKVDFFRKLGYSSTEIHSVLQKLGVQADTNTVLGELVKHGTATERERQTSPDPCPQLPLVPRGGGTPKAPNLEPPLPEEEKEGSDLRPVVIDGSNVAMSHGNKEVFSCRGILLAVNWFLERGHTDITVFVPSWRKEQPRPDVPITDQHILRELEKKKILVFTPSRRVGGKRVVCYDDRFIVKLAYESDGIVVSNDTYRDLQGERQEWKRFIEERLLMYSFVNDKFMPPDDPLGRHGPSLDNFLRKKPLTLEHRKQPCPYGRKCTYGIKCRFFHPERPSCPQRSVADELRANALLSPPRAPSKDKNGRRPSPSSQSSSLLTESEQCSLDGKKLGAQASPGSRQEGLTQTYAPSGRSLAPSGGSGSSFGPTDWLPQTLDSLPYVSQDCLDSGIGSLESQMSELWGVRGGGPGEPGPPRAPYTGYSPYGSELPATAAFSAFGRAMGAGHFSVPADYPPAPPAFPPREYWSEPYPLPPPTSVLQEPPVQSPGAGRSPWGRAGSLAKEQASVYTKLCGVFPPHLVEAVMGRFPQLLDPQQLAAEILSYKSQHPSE
Summary of the method: (§1)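 Read-out was AlphaScreen luminescence using anti-FLAG acceptor and glutathione donor beads, with Regnase-1 alone set as 100% and DMSO as 0% inhibition to fit IC50. Compound was premixed with 2.5 nM full-length human Regnase-1 (Expi293-expressed, FLAG/BirA-tagged). 2.5 nM TBK1 or IKKβ was then added for 2 h at room temperature.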

[2] = molecular target: T2, binding between TBK1 and full-length Regnase-1 (FL_Reg1) (Homo sapiens, UniProt Q5D1E8); assay: Inhibition of kinase-Regnase-1 binding by the compounds (AlphaScreen), TBK1
T2 construct: made in house; host or cells: Expi293 cells
T2 sequence (Q5D1E8 1-599): T1 sequence (Q5D1E8 1-599)
Summary of the method: as §1

[3] = molecular target: T3, FL_Reg1 (full-length human Regnase-1) phosphorylation by IKKβ (Homo sapiens, UniProt Q5D1E8); assay: Regnase-1 phosphorylation inhibition by compounds (AlphaScreen), IKKβ, full-length Regnase-1; format: biochemical
T3 construct: made in house; host or cells: Expi293 cells
T3 sequence (Q5D1E8 1-599): T1 sequence (Q5D1E8 1-599)
Summary of the method: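 FLAG/BirA-tagged human Regnase-1 constructs (full-length, 1–546 or 301–599), expressed in Expi293 cells, were used at 2 nM with compound and phosphorylated by IKKβ or TBK1 with 10 μM ATP, DTT, vanadate and MnCl2 for 2 h at room temperature. Phospho-Regnase-1 was read by AlphaScreen; IC50 came from % inhibition curves normalised to DMSO and Regnase-1-alone signals.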

[4] = Table 14, binding between IKKβ and Regnase-1, read-out: Binding inhibition FL_Reg1, 50% inhibition concentration (IKKβ)
[5] = Table 13, binding between TBK1 and Regnase-1, read-out: Binding inhibition FL_Reg1, 50% inhibition concentration (TBK1)
[6] = Table 14, phosphorylation by IKKβ, read-out: Phosphorylation inhibition FL_Reg1, 50% inhibition concentration (IKKβ)
[7] = Table 12, 2.5 nM Regnase-1, 2.5 nM IKKβ, AlphaScreen, read-out: 50% inhibition concentration, binding between Regnase-1 and IKKβ, FL_Reg1
[8] = Table 12, 2.5 nM Regnase-1, 2.5 nM TBK1, AlphaScreen, read-out: 50% inhibition concentration, binding between Regnase-1 and TBK1, FL_Reg1
[9] = Table 11, 2 nM Regnase-1, AlphaScreen, read-out: 50% inhibition concentration, Regnase-1 phosphorylation, FL_Reg1, IKKβ

IC50 [1, 4]	IC50 [2, 5]	IC50 [3, 6]	Structure (SMILES)	IC50 [1, 7]	IC50 [2, 8]	IC50 [3, 9]
> 62.1 µM	20.2 µM	20.6 µM	CC[C@H](C)[C@@H]1NC(=O)[C@H](CC(N)=O)NC(=O)[C@H](Cc2ccc(O)cc2)NC(=O)[C@H](Cc2c[nH]c3ccccc23)NC(=O)[C@H](CO)NC(=O)[C@H](CC(N)=O)NC(=O)[C@H](CO)NC(=O)[C@H](Cc2ccccc2)NC(=O)[C@H](CC(N)=O)NC(=O)[C@H](C)N(C)C(=O)C[C@@H](C(=O)N2CCCC2)NC(=O)[C@H](Cc2c[nH]c3ccccc23)NC1=O [PP16] (HELM PEPTIDE1{[meA].N.F.S.N.S.W.Y.N.I.W.D.[C1CCN([*:1])C1]}$PEPTIDE1,PEPTIDE1,1:R1-12:R3$$$V2.0)			
5.8 µM	2.4 µM	5.4 µM	CC[C@H](C)[C@@H]1NC(=O)[C@H](CCCCN)NC(=O)[C@H](Cc2ccc(O)cc2)NC(=O)[C@H](Cc2ccccc2)NC(=O)[C@H](C(C)C)NC(=O)[C@H](C)N(C)C(=O)C[C@@H](C(=O)N2CCCC2)NC(=O)[C@H](Cc2c[nH]c3ccccc23)NC(=O)[C@H](CC(N)=O)NC(=O)[C@H](Cc2ccc(O)cc2)NC(=O)[C@H](Cc2c[nH]c3ccccc23)NC1=O [PP19] (HELM PEPTIDE1{[meA].V.F.Y.K.I.W.Y.N.W.D.[C1CCN([*:1])C1]}$PEPTIDE1,PEPTIDE1,1:R1-11:R3$$$V2.0)			

Continued, compound first:

Structure (SMILES)	IC50 [1, 4]	IC50 [2, 5]	IC50 [3, 6]	IC50 [1, 7]	IC50 [2, 8]	IC50 [3, 9]
CC[C@H](C)[C@@H]1NC(=O)[C@H](CC(=O)O)NC(=O)[C@H](C)N(C)C(=O)C[C@@H](C(=O)N2CCCC2)NC(=O)[C@H](Cc2ccc(O)cc2)NC(=O)[C@H](CC(=O)O)NC(=O)[C@H](Cc2c[nH]c3ccccc23)NC(=O)[C@H](Cc2ccc(O)cc2)NC(=O)[C@H](CC(=O)O)NC(=O)[C@H](Cc2ccccc2)NC(=O)[C@H](Cc2c[nH]c3ccccc23)NC1=O [PP18] (HELM PEPTIDE1{[meA].D.I.W.F.D.Y.W.D.Y.D.[C1CCN([*:1])C1]}$PEPTIDE1,PEPTIDE1,1:R1-11:R3$$$V2.0)	< 0.06 µM	< 0.06 µM	0.4 µM			
CC[C@H](C)[C@@H]1NC(=O)[C@H](Cc2ccc(O)cc2)NC(=O)[C@H](C)N(C)C(=O)C[C@@H](C(=O)N2CCCC2)NC(=O)[C@H](CC(C)C)NC(=O)[C@H](CC(=O)O)NC(=O)CNC(=O)[C@H](Cc2ccccc2)NC(=O)[C@H](Cc2ccccc2)NC(=O)[C@H](CC(=O)O)NC(=O)[C@H](Cc2c[nH]c3ccccc23)NC1=O [PP4] (HELM PEPTIDE1{[meA].Y.I.W.D.F.F.G.D.L.D.[C1CCN([*:1])C1]}$PEPTIDE1,PEPTIDE1,1:R1-11:R3$$$V2.0)				47.7 µM	24.4 µM	19.5 µM
CC[C@H](C)[C@@H]1NC(=O)[C@H](CCCNC(=N)N)NC(=O)[C@H](Cc2ccc(O)cc2)NC(=O)[C@H](Cc2c[nH]c3ccccc23)NC(=O)[C@H](C)NC(=O)[C@H](CO)NC(=O)[C@H](C)NC(=O)[C@H](Cc2c[nH]cn2)NC(=O)[C@H](CCCCN)NC(=O)[C@@H](C)N(C)C(=O)C[C@@H](C(=O)N2CCCC2)NC(=O)[C@H](Cc2c[nH]c3ccccc23)NC1=O [PP3] (HELM PEPTIDE1{[C[C@H](C(=O)[*:2])N(C)[*:1]].K.H.A.S.A.W.Y.R.I.W.D.[C1CCN([*:1])C1]}$PEPTIDE1,PEPTIDE1,1:R1-12:R3$$$V2.0)				8.3 µM	3.1 µM	4.6 µM
CC[C@H](C)[C@@H]1NC(=O)[C@H](Cc2c[nH]c3ccccc23)NC(=O)[C@@H](Cc2ccccc2)NC(=O)[C@H](CCCCN)NC(=O)[C@H](C)N(C)C(=O)C[C@@H](C(=O)N2CCCC2)NC(=O)[C@H](CCC(=O)O)NC(=O)[C@H](Cc2ccccc2)NC(=O)[C@H](CO)NC(=O)[C@H](Cc2c[nH]cn2)NC(=O)[C@H](Cc2c[nH]cn2)NC1=O [PP20] (HELM PEPTIDE1{[meA].K.[dF].W.I.H.H.S.F.E.D.[C1CCN([*:1])C1]}$PEPTIDE1,PEPTIDE1,1:R1-11:R3$$$V2.0)	> 62.1 µM	47.6 µM	24.7 µM			
CC[C@H](C)[C@@H]1NC(=O)[C@H](CCCCN)NC(=O)[C@H](Cc2ccc(O)cc2)NC(=O)[C@H](Cc2c[nH]c3ccccc23)NC(=O)[C@H](CO)NC(=O)[C@H](CC(N)=O)NC(=O)[C@H](C)N(C)C(=O)C[C@@H](C(=O)N2CCCC2)NC(=O)[C@H](CC(C)C)NC(=O)CNC(=O)[C@H](Cc2c[nH]c3ccccc23)NC1=O [PP21] (HELM PEPTIDE1{[meA].N.S.W.Y.K.I.W.G.L.D.[C1CCN([*:1])C1]}$PEPTIDE1,PEPTIDE1,1:R1-11:R3$$$V2.0)	20.7 µM	5.6 µM	19.6 µM			
CC[C@H](C)[C@@H]1NC(=O)[C@H](CCCCN)NC(=O)[C@H](Cc2ccc(O)cc2)NC(=O)[C@H](Cc2c[nH]c3ccccc23)NC(=O)[C@H](CO)NC(=O)[C@H](CO)NC(=O)[C@H]([C@@H](C)O)NC(=O)[C@@H]2CCCN2C(=O)[C@@H](C)N(C)C(=O)C[C@@H](C(=O)N2CCCC2)NC(=O)[C@H](Cc2c[nH]c3ccccc23)NC1=O [PP23] (HELM PEPTIDE1{[C[C@H](C(=O)[*:2])N(C)[*:1]].P.T.S.S.W.Y.K.I.W.D.[C1CCN([*:1])C1]}$PEPTIDE1,PEPTIDE1,1:R1-11:R3$$$V2.0)	41.3 µM	9.2 µM	25.6 µM			
